What was measured:
[1] = system: advanced metastatic renal cell clear cell carcinoma; test: Sutent treatment of patients with advanced metastatic renal cell clear cell carcinoma, response after the 3 months therapy course (RECIST criteria); format: in vivo, human; details: of 50 patients analyzed, 50 mg/day for 4 weeks followed by 2 weeks off
Protocol: All patients were diagnosed with advanced metastatic renal cell clear cell carcinoma and subjected to surgery for removal of the primary tumor. The tumor tissue was fixed in formaldehyde, and embedded in paraffin. Sections were cut and stained for the FSH receptor using the monoclonal antibody FSHR323, followed by a secondary HRP- or Alexa555-coupled antibody. The density of vessels in the tumor tissue was determined by microscopy using a 20× objective. Starting at the border between the normal and the tumor tissue and moving towards the interior of the tumor, digital photographs were taken of every other field. The number of FSHR-positive vessels in each image was counted in 20 images from each tumor.
The patients were subjected to Sutent treatment for >=3 months with a dose of 50 mg/day for 4 weeks followed by 2 weeks off. Depending on the effects of the treatment, at the end of the 3 months therapy course the patients were designated as “responsive”, “stable” or “non-responsive” according to the criteria described in [Eisenhauer et al., 2009]. The patients were categorized as “responsive” if there was at least a 30% decrease in the sum of the diameters of the lesions, and “non-responsive” if the sum of the lesion sizes increased by at least 20%.

[2] = system: metastatic renal cell carcinoma (mRCC); details: cited from earlier work
RCC = details: BEV alone; cited from earlier work

For `CCN(CC)CCNC(=O)c1c(C)[nH]c(/C=C2\C(=O)Nc3ccc(F)cc32)c1C` [Sutent, N-[2-(diethylamino)ethyl]-5-[(Z)-(5-fluoro-1,2-dihydro-2-oxo-3H-indol-3-ylidine)methyl]-2,4-dimethyl-1H-pyrrole-3 carboxamide], the “number of patients "non-responsive" (sum of the lesion sizes increased by at least 20%)” value [1] was 17 patients, the “number of patients "responsive" (at least 30% decrease in the sum of the diameters of the lesions)” value [1] was 15 patients and the “number of patients "stable"” value [1] was 18 patients. For the same compound, the “fraction of RCC patients who respond to the treatment” value ([2]; RCC patients) was “about one third”, the “reduction of the risk of relapse (progression-free survival)” value ([2]; first-line therapy, mRCC, compared to interferon-α) was 58% and the adverse side effects ([2]; patients, typical treatment session 3 months) was “significant adverse side effects”.
In the case of “BEV: a monoclonal humanized antibody against circulating VEGF”, the “activity in patients with RCC” value (RCC) is given as “showed activity only as second-line treatment and only in cytokine-refractory patients”.

— patent publication US20130131136A1, “NOVEL METHODS FOR PREDICTING THE RESPONSIVENESS OF A PATIENT AFFECTED WITH A TUMOR TO A TREATMENT WITH A TYROSINE KINASE INHIBITOR” (priority 2010, published 2013)
